Test [1] relates to human neutrophils. The experiment in a line: FACS analysis of surface CD11b expression on neutrophils. It is filed as cell-based. Conditions: 1 μM or 10 μM, 1 hour. On the procedure: Purified neutrophils were incubated with indicated concentration of PACAP27 (SEQ ID NO:1) for 1 hour. Cells (2×10^5/assay) were washed with FACS buffer (PBS containing 1% BSA and 0.1% sodium azide), incubated with human AB type serum for 10 minutes on ice, and stained with PE-labeled human CD11b antibody (BD PharMingen, San Diego, Calif.). They were then analyzed using a FACSCalibur system (BD Biosciences, San Jose, Calif.), as described in “Harfi, I., S. D'Hondt, F. Corazza, and E. Sariban. 2004. J. Immunol. 173:4154-4163”.

The subject of another test is RA FLS. As to the kind of experiment: Cell proliferation assay ([3H]-thymidine incorporation, cell counts) in RA FLS. The class given is cell-based, human. Conditions: SAA 5 μM, 72 h, PTX 100 ng/ml, U73122 1 μM, PD98059 50 μM, LY294002 50 μM. As for the experimental part:
Fibroblast-like synoviocytes (FLS) were prepared from synovial samples obtained from patients suffering from RA and osteoarthritis (OA), all of whom were also undergoing total joint replacement surgery. The FLS were isolated from the synovial tissues in accordance with a previously described procedure (Cho, C. S., M. L. Cho, S. Y. Min, W. U. Kim, D. J. Min, S. S. Lee, S. H. Park, J. Choe, and H. Y. Kim. 2000. CD40 engagement on synovial fibroblast up-regulates production of vascular endothelial growth factor. J. Immunol. 164: 5055-5061).
In brief, fresh synovial tissues were minced into 2- to 3-mm pieces, then treated for 4 h with 4 mg/ml type I collagenase (Worthington Biochemical), and maintained in Dulbecco's Modified Eagle's Medium (DMEM) containing 10% FBS at 37° C. in an atmosphere containing 5% CO2. […] MH7A cells, the immortalized synoviocytes that harbor the SV40 T antigen, were grown in DMEM supplemented with 10% FBS, as previously described (Miyazawa, K, A. Mori, and H. Okudaira. 1998. Establishment and characterization of a novel human rheumatoid fibroblast-like synoviocyte line, MH7A, immortalized with SV40T antigen. J. Biochem. 124: 1153-1162), and then employed in some of the experiments. Human umbilical vein endothelial cells (HUVECs) were isolated from fresh human umbilical cords via collagenase (Worthington Biochemical) digestion, and then maintained in 20% FBS-containing M-199 medium (Sigma, St. Louis, Mo.), as previously described. All HUVECs were used after no more than five passages.
The RA FLS, OA FLS, and HUVECs were plated onto 24-well culture dishes at a density of 2×10^4 cells/well, and then permitted to attach overnight. After 24 h of serum starvation, the cells were treated for 72 h with a variety of mitogens. [^3H]-thymidine (1 μCi) was added to each of the wells prior to the final 6 h of incubation. Cell growth was also evaluated via cell counts. Control and mitogen-treated cells were harvested by trypsinization, and the number of cells was determined with a hemocytometer, under ×100 magnification.
For orientation: Dividing cells build labelled thymidine or BrdU into new DNA.

Test [2] relates to human neutrophils. As to the kind of experiment: Intracellular calcium mobilization (fura-2) in human neutrophils. The following applies: 1 M peptide. It is filed as cell-based. On the procedure: Neutrophils were stimulated with 1 μM of PACAP27 (SEQ ID NO:1), PACAP38 (SEQ ID NO:2), or VIP (SEQ ID NO:3), and calcium concentrations were measured for 10 min. In order to measure EKR phosphorylation, each peptide hormones was used with 1 μM concentrations for 5 min. For cAMP measurement, each peptide hormones was used with 1 μM concentrations for 10 min.
(§1) Intracellular calcium concentrations ([Ca^2+]i) were determined using Grynkiewicz's method with fura-2/AM, as described in “Grynkiewicz, G., M. Poenie, and R. Y. Tsien. 1985. […] J. Biol. Chem. 260:3440-3450”. Briefly, the cells prepared in Example 1.2 were incubated with 3 µM fura-2/AM at 37° C. for 50 minutes in fresh serum free RPMI 1640 medium with continuous stirring. The incubated cells (2×10^6) were aliquoted for each assay in Ca^2+-free Locke's solution (154 mM NaCl, 5.6 mM KCl, 1.2 mM MgCl2, 5 mM HEPES (pH 7.3), 10 mM glucose, and 0.2 mM EGTA). Fluorescence changes at 340 and 380 nm using a common emission wavelength of 500 nm were measured, and fluorescence ratios were converted to [Ca2+]i, as described in above Grynkiewicz, G. et al.

The target in test [3] is T1, FPRL1 (Homo sapiens, UniProt P25090).
T1 construct: expressed in transfected cells
T1 sequence (P25090 1-351): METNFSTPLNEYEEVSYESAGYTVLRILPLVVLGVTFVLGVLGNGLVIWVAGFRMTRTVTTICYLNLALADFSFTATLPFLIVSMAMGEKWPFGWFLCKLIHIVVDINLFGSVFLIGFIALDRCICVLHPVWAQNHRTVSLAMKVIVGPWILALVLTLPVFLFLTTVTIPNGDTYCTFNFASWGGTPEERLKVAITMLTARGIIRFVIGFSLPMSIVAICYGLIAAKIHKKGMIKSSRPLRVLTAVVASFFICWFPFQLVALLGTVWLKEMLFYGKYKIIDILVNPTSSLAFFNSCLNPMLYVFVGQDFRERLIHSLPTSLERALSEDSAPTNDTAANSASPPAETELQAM
The experiment in a line: Intracellular calcium mobilization (fura-2) in FPRL1/RBL cells. The class given is cell-based. On the procedure: FPRL1-expressing rat basophile leukemia (RBL)-2H3 (FPRL1/RBL), FPR-expressing RBL-2H3 (FPR/RBL), and vector-transfected RBL-2H3 (vector/RBL) were donated by Dr. Richard D. Ye (University of Illinois). FPRL1/RBL, FPR/RBL, and vector/RBL were maintained at 37° C. in a humidified 5% CO2 atmosphere in high glucose DMEM supplemented with 20% (vol/vol) heat-inactivated fetal calf serum and G418 ([…]). FPRL1/RBL, FPR/RBL, and vector/RBL were sub-cultured every three days. The prepared cells were used in the following examples.
as §1
Background: A change in cytosolic calcium serves as a functional read-out for many receptors and channels.

For another test, the system named is HUVECs. The experiment in a line: HUVEC wounding migration assay. It is filed as cell-based, human. The following applies: SAA 5 μM, WKYMVm 10 nM, VEGF 20 ng/ml; 12 h. On the procedure: […] After 12 h of incubation, migration was quantitated via counts of the cells migrating beyond the reference line. For the tube formation assay, the HUVECs were seeded on a layer of previously polymerized Matrigel (BD Biosciences) with SAA (SEQ ID NO:19) (5 μg/ml), WKYMVm (SEQ ID NO:5) peptide (10 nM), a specific ligand for FPRL1 (32, 33) or VEGF (20 ng/ml). After 18 h of incubation, the cell morphology was visualized via phase-contrast microscopy and photographed.

Test [4] has as its target T1, FPRL1. As to the kind of experiment: Ligand binding analysis, 125I-labeled PACAP27 on FPRL1/RBL cells. The following applies: compared with PACAP27. As for the experimental part:
The ligand binding analysis was performed as described in “Bae, Y. S., H. Y. Lee, E. J. Jo, J. I. Kim, H. K. Kang, R. D. Ye, J. Y. Kwak, and S. H. Ryu. 2004. J. Immunol. 173:607-614”. Briefly, FPRL1/RBL cells were seeded at 1×10^5 cells/well onto a 24 well plate and cultured overnight. After blocking them with blocking buffer (33 mM HEPES, pH 7.5, 0.1% BSA in RPMI 1640 medium) for 2 hours, 50 pM of ^125I-labeled PACAP27 (Perkin-Elmer, Boston, Mass.) was added to the cells in binding buffer (PBS containing 0.1% BSA), in the presence of the test peptides (cold PACAP27 (SEQ ID NO:1), truncated-PACAPs, and chimeric PACAPs), and then incubated for 3 hours at 4° C. with continuous shaking. The cells were then washed 5 times with ice-cold binding buffer, and 200 µL of lysis buffer (20 mM Tris, pH 7.5, 1% Triton X-100) was added to each well for 20 minutes at room temperature. Lysates were then collected and counted using a γ-ray counter.

Test [5] addresses T2, formyl peptide receptor-like 1 (FPRL1) (human, UniProt P25090 1-351).
T2 construct: in the other assays endogenous on human neutrophils, monocytes, synoviocytes (FLS, MH7A) or HUVECs; also called FPRL1/RBL; lipoxin A4 receptor (LXA4R)
T2 sequence: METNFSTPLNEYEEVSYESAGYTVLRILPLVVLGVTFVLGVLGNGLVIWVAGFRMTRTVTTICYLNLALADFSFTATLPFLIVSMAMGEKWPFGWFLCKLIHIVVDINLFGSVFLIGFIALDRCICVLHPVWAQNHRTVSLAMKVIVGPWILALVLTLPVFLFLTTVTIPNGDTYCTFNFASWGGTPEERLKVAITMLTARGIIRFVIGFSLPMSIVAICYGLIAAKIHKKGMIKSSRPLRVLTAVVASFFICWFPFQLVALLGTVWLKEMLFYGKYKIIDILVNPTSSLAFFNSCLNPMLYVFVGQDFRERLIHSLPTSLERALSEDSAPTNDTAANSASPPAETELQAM
As to the kind of experiment: cell-based or functional assay.

In test [6] the target is T2, formyl peptide receptor-like 1 (FPRL1). As to the kind of experiment: displacement of 125I-PACAP27 by unlabeled peptide on FPRL1/RBL cells. On the technique in general: Loss of bound radioactivity is the signal in a displacement assay; it reports binding, not function.

Where no end group is shown, it is not given here.

For the molecule “polymyxin b-treated PACAP27: PACAP27 pretreated with 5 μM polymyxin b for 1 hour in 37° C. (HSDGIFTDSYSRYRKQMAVKKYLAAVL; not fully specified; ends and bridges not checked; listed as Homo sapiens)”, the “CD11b up-regulation compared with PACAP27” value in the test with human neutrophils [1] is given as “no difference”.

In the case of “boiled PACAP27: PACAP27 heat-inactivated for 10 minutes in boiling water (HSDGIFTDSYSRYRKQMAVKKYLAAVL; not fully specified; ends and bridges not checked; listed as Homo sapiens)”, the “CD11b up-regulation compared with PACAP27” value with human neutrophils [1] was “no difference”.

As to `COc1cccc(-c2cc(=O)c3ccccc3o2)c1N` [PD98059], the “blockage of the proliferative and anti-apoptotic activities of SAA” value in the test with RA FLS was “almost complete blockage”.

Take `COc1ccc2c(c1)CC[C@@H]1[C@@H]2CC[C@]2(C)[C@@H](NCCCCCCN3C(=O)C=CC3=O)CC[C@@H]12` [U73122]: in the test with RA FLS, the “blockage of the proliferative and anti-apoptotic activities of SAA” value was “almost complete blockage”.

Regarding “VIP: vasoactive intestinal peptide, SEQ ID NO:3”, the “[Ca2+]i increase in human neutrophils” value in the test with human neutrophils [2] was “neither PACAP38 (SEQ ID NO:2) nor VIP (SEQ ID NO:3) increased [Ca2+]i”. Also, the “[Ca2+]i increase / activation of FPRL1” value in the test with FPRL1 [3] is “does not interact with FPRL1”.

With VEGF, the “migratory activity of HUVECs relative to control cells” value in the test with HUVECs is on record as “approximately 3 times”.

For the molecule “tPACAP9-27: truncated PACAP27, SEQ ID NO:7 (SYSRYRKQMAVKKYLAAVL; ends and bridges not checked; listed as Homo sapiens)”, the “[Ca2+]i increase / activation of FPRL1” value in the test with FPRL1 [3] is listed as “partially activate”. Also, the “binding affinity to FPRL1 (in words)” value with FPRL1 [4] was “almost the same binding affinity as PACAP27”.

Take “Serum amyloid A (SAA) (from UniProt P0DJI8 19-94) (ligand)”: the intracellular Ca2+ in RA FLS (Fluo-3, calcium imaging), SAA 3 µM in test [5] worked out at 2.3 fold.

Take “PACAP38: pituitary adenylate cyclase-activating polypeptide, 38 amino acids, SEQ ID NO:2 (HSDGIFTDSYSRYRKQMAVKKYLAAVLGKRYKQRVKNK; ends and bridges not checked; listed as Homo sapiens)”: the “[Ca2+]i increase in human neutrophils” value in the test on human neutrophils [2] is “neither PACAP38 (SEQ ID NO:2) nor VIP (SEQ ID NO:3) increased [Ca2+]i”.

B1: cPACAP9VIP (chimeric PACAP) (peptide)
peptide: HSDGIFTDNYSRYRKQMAVKKYLAAVL
modifications: ends and bridges not checked
notes: PACAP27 with the VIP residue at position 9; bought from GenScript
A word on the Kd: it is the equilibrium constant for the complex coming apart. Low readings indicate a tighter complex, high ones a looser complex. In test [6], B1 showed a Kd of 51.2 nM.

B2: cPACAP13VIP (chimeric PACAP) (peptide)
peptide: HSDGIFTDSYSRLRKQMAVKKYLAAVL
modifications: ends and bridges not checked
notes: PACAP27 with the VIP residue at position 13; bought from GenScript
In test [6], B2 yielded a Kd of 51.2 nM.

B3: tPACAP9-27 (truncated PACAP) (peptide)
peptide: SYSRYRKQMAVKKYLAAVL
modifications: ends and bridges not checked
notes: Synthetic truncation of PACAP27; the range is counted on PACAP27, by the peptide's name
On to B3, for which the binding result in test [6] was “binds”.

Source of the values: patent US20100291089A1, “LIGAND OF REGULATING IMMUNE RESPONSE, AND USE THEREOF IN TREATING AN IMMUNE RESPONSE-RELATED DISEASE” (POSTECH ACADEMY-INDUSTRY FOUNDATION, priority 2005, published 2010).
